Assay results reported in patent US20060069132A1, “Azolecarboxamide herbicides” (priority 2004, published 2006).

Tests used:
[1] = tested on: woolly cupgrass; experiment: Test C pre-/postemergence herbicide test; format: in vivo, Eriochloa villosa; conditions: for Cupgrass, Woolly plant response rating: Preemergence, 500 g ai/ha
Summary of the method: (§1)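 Preemergence: seeds planted and treated with compound in non-phytotoxic solvent with surfactant; postemergence: plants at 2 to 18 cm (1- to 4-leaf stage) sprayed likewise. Kept in greenhouse 12 to 14 days, then visually rated against controls, 0 (no effect) to 100 (complete control).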

[2] = tested on: barnyardgrass; experiment: Test B flooded paddy test; format: in vivo, Echinochloa crus-galli; conditions: 1000 g ai/ha, visual rating, scale 0 to 100 (0 no effect, 100 complete control), 13 to 15 days
Summary of the method: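 Each value is a visual 0–100 response rating taken against controls 13 to 15 days after treatment in the greenhouse. Plants received formulated chemical postemergence at the 1- to 4-leaf stage or, in flooded paddy, at the 2-leaf stage.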

[3] = tested on: eastern black nightshade; experiment: Test C pre-/postemergence herbicide test; format: in vivo, Solanum ptycanthum; conditions: for Plant response rating, Nightshade / Plant response rating (0 = no effect, 100 = complete control), Nightshade: preemergence; for Nightshade plant response rating: Preemergence, 500 g ai/ha, scale 0 to 100, 0 no effect, 100 complete control
Summary of the method: as §1

[4] = tested on: large crabgrass; experiment: Test C pre-/postemergence herbicide test; format: in vivo, Digitaria sanguinalis; conditions: for Crabgrass, Large plant response rating: Preemergence, 500 g ai/ha
Summary of the method: as §1

[5] = tested on: giant foxtail; experiment: Test A pre-/postemergence herbicide test; format: in vivo, Setaria faberi
Summary of the method: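 Sandy loam soil given preemergence directed spray; plants at 2 to 10 cm, one- to two-leaf stage, sprayed to runoff postemergence, compounds in non-phytotoxic solvent with surfactant. Injury rated visually versus untreated controls after about ten greenhouse days, 0 (no effect) to 100 (complete control); dash means not tested.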

[6] = tested on: wheat; experiment: Test B postemergence herbicide test; format: in vivo, Triticum aestivum; parameters: key to Wheat plant response rating: 0 = no effect, 100 = complete control; conditions: scale 0 (no effect) to 100 (complete control); for Plant response rating, Wheat: Postemergence, visual rating after 13 to 15 days; for Wheat plant response rating: postemergence, visual rating
Summary of the method: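 Greenhouse test; postemergence application to plants at 1–4 leaves (2–18 cm); paddy species at 2 leaves; evaluated visually vs controls at 13–15 days; scale 0–100 (100 = complete control).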

[7] = tested on: yellow nutsedge; experiment: Test C pre-/postemergence herbicide test; format: in vivo, Cyperus esculentus; conditions: for Nutsedge, Yellow plant response rating: Preemergence, 500 g ai/ha
Summary of the method: as §1

[8] = 31 g ai/ha, preemergence, scale 0 to 100
[9] = 125 g ai/ha, scale 0 (no effect) to 100 (complete control), visual, 12 to 14 days, preemergence
[10] = Postemergence, 125 g ai/ha, scale 0 to 100, 0 no effect, 100 complete control
[11] = postemergence, 62 g ai/ha, scale 0 to 100
[12] = 125 g ai/ha, scale 0 (no effect) to 100 (complete control), visual, 12 to 14 days
[13] = Postemergence, 500 g ai/ha, 0 to 100 scale, 0 no effect, 100 complete control
[14] = Postemergence, 2000 g ai/ha, 0 to 100 scale, 0 no effect, 100 complete control
[15] = Preemergence, 500 g ai/ha, visual rating, 0 to 100 scale (0 no effect, 100 complete control)
[16] = Preemergence, 2000 g ai/ha, 0 to 100 scale, 0 no effect, 100 complete control
[17] = 250 g ai/ha, scale 0 to 100 (0 no effect, 100 complete control), visual, 12 to 14 days, preemergence
[18] = Postemergence, 250 g ai/ha, scale 0 to 100, 0 no effect, 100 complete control
[19] = 250 g ai/ha, scale 0 to 100 (0 no effect, 100 complete control), visual, 12 to 14 days
[20] = scale 0 to 100, 0 no effect, 100 complete control
[21] = Preemergence, 2000 g ai/ha, visual rating, 0 to 100 scale (0 no effect, 100 complete control)
[22] = 62 g ai/ha, preemergence, scale 0 to 100
[23] = 250 g ai/ha, scale 0-100, preemergence
[24] = preemergence, 500 g ai/ha, visual injury, 0 to 100 scale (0 no effect, 100 complete control)

Structure (SMILES)	Plant response rating (0 = no effect, 100 = complete control), Cupgrass, Woolly ([1]; 62 g ai/ha, preemergence)	Plant response rating, Cupgrass, Woolly [1, 9]	Barnyardgrass plant response rating [2]	Plant response rating, Nightshade [3, 12]	Plant response rating (0 = no effect, 100 = complete control), Crabgrass, Large ([4]; 62 g ai/ha, preemergence)	Plant response rating, Crabgrass, Large [4, 9]	Plant response rating, Foxtail, Giant [5, 14]	Foxtail, Giant plant response rating [5, 15]	Plant response rating (0 = no effect, 100 = complete control), Nutsedge, Yellow ([7]; 62 g ai/ha, preemergence)	Plant response rating, Nutsedge, Yellow [7, 9]	Plant response rating, Cupgrass, Woolly [1, 17]	Plant response rating, Crabgrass, Large [4, 17]	Cupgrass, Woolly plant response rating [1, 20]	Nightshade plant response rating [3]	Crabgrass, Large plant response rating [4, 20]	Wheat plant response rating ([6]; 125 g ai/ha)	Nutsedge, Yellow plant response rating [7, 20]	Foxtail, Giant plant response rating [5, 13]	Foxtail, Giant plant response rating [5, 21]	Wheat plant response rating ([6]; 500 g ai/ha)	also measured
CCNC(=O)c1cccc(NC(=O)c2cc(C(C)(C)C)nn2CCF)c1 [Compound 35]	10	20	90	90	10	50	70	80	0	0	–	–	–	–	–	–	–	–	–	–	Plant response rating, Cupgrass, Woolly [1, 8]: 10; Plant response rating, Cupgrass, Woolly [1, 10]: 60; Plant response rating, Cupgrass, Woolly [1, 11]: 40; Plant response rating, Nightshade ([3]; 31 g ai/ha, scale 0 to 100): 70; Plant response rating, Crabgrass, Large [4, 8]: 0; Plant response rating, Crabgrass, Large [4, 10]: 40; Plant response rating, Crabgrass, Large [4, 11]: 40; Plant response rating, Foxtail, Giant [5, 13]: 50; Foxtail, Giant plant response rating [5, 16]: 100; Plant response rating, Wheat ([6]; 500 g ai/ha): 20; Plant response rating, Nutsedge, Yellow ([7]; 16 g ai/ha, scale 0 to 100, last section of Table C, preemergence): 0; Plant response rating, Nutsedge, Yellow [7, 8]: 0; Plant response rating, Nutsedge, Yellow ([7]; postemergence, 125 g ai/ha, scale 0 to 100): 0; Plant response rating, Nutsedge, Yellow [7, 11]: 0
CCn1nc(C(C)(C)C)cc1C(=O)Nc1cccc(C(=O)NC2CC2)c1 [Compound 44]	0	10	70	90	0	20	90	65	0	0	10	20	–	–	–	–	–	–	–	–	Plant response rating, Cupgrass, Woolly [1, 10]: 60; Plant response rating, Cupgrass, Woolly [1, 18]: 60; Plant response rating, Cupgrass, Woolly [1, 11]: 50; Plant response rating (0 = no effect, 100 = complete control), Nightshade ([3]; 62 g ai/ha): 80; Plant response rating, Nightshade [3, 19]: 100; Plant response rating, Crabgrass, Large [4, 10]: 90; Plant response rating, Crabgrass, Large [4, 18]: 90; Plant response rating, Crabgrass, Large [4, 11]: 60; Plant response rating, Foxtail, Giant [5, 13]: 50; Foxtail, Giant plant response rating [5, 16]: 100; Plant response rating, Wheat ([6]; 500 g ai/ha): 20; Plant response rating, Nutsedge, Yellow [7, 17]: 0; Plant response rating, Nutsedge, Yellow [7, 18]: 20; Plant response rating, Nutsedge, Yellow [7, 11]: 20
CCn1nc(C(C)(C)C)cc1C(=O)Nc1cccc(C(=O)NCC(C)C)c1 [Compound 61]	0	0	30	20	50	75	85	20	0	0	0	100	10	90	100	10	30	–	–	–	Plant response rating (0 = no effect, 100 = complete control), Nightshade ([3]; 62 g ai/ha): 0; Plant response rating, Nightshade [3, 19]: 40; Plant response rating, Foxtail, Giant [5, 13]: 20; Foxtail, Giant plant response rating [5, 16]: 75; Plant response rating, Wheat ([6]; 500 g ai/ha): 10; Plant response rating, Nutsedge, Yellow [7, 17]: 10
CCCCOc1cccc(NC(=O)c2cc(C(C)(C)C)nn2CC)c1 [Compound 137]	0	0	20	85	40	70	30	50	0	0	5	100	40	90	100	10	0	20	80	20	Plant response rating (0 = no effect, 100 = complete control), Nightshade ([3]; 62 g ai/ha): 60
CCN(CC)C(=O)c1ccnc(NC(=O)c2cc(C(C)(C)C)nn2CC)c1 [Compound 153]	–	0	40	100	–	0	90	15	–	0	0	0	60	100	80	–	45	20	60	10	Plant response rating, Cupgrass, Woolly [1, 22]: 0; Plant response rating, Nightshade ([3]; 62 g ai/ha, scale 0 to 100): 90; Plant response rating, Crabgrass, Large [4, 22]: 0; Plant response rating, Nutsedge, Yellow [7, 22]: 0
CCN(CC)C(=O)c1cccc(NC(=O)c2sc(C(C)(C)C)nc2C)c1 [Compound 199]	–	0	10	95	–	90	65	–	–	0	–	–	70	100	95	0	0	25	100	10	Plant response rating, Cupgrass, Woolly [1, 22]: 0; Plant response rating, Cupgrass, Woolly [1, 23]: 40; Plant response rating, Nightshade ([3]; 62 g ai/ha, scale 0 to 100): 85; Plant response rating, Nightshade ([3]; 250 g ai/ha, scale 0-100): 100; Plant response rating, Crabgrass, Large [4, 22]: 10; Plant response rating, Crabgrass, Large [4, 23]: 90; Foxtail, Giant plant response rating [5, 24]: 80; Plant response rating, Nutsedge, Yellow [7, 22]: 0; Plant response rating, Nutsedge, Yellow [7, 23]: 0
CCc1nc(C(C)(C)C)sc1C(=O)Nc1cccc(C(=O)N(CC)CC)c1 [Compound 205]	–	10	70	100	–	80	25	–	–	0	–	–	50	100	100	10	10	10	100	20	Plant response rating, Cupgrass, Woolly [1, 22]: 0; Plant response rating, Cupgrass, Woolly [1, 23]: 10; Plant response rating, Nightshade ([3]; 62 g ai/ha, scale 0 to 100): 80; Plant response rating, Nightshade ([3]; 250 g ai/ha, scale 0-100): 100; Plant response rating, Crabgrass, Large [4, 22]: 60; Plant response rating, Crabgrass, Large [4, 23]: 100; Foxtail, Giant plant response rating [5, 24]: 85; Plant response rating, Nutsedge, Yellow [7, 22]: 0; Plant response rating, Nutsedge, Yellow [7, 23]: 0
